The structures appear in SMILES notation. Values joined by “and” are separate entries in the source; they are usually repeats but may differ in a detail not shown here. Equal values may be shown once. Some results are limits rather than exact numbers.

For one assay, the target named is T1, factor Xa (Homo sapiens, UniProt P00742).
T1 construct: antithrombin, factor Xa and factor XIa were from Haematologic Technologies; purchased Haematologic Technologies (Essex Junction, VT); host or cells: human plasma
Kind of assay: Antithrombin inactivation of factor Xa in the presence of sulfated coumarin. The following applies: 0 or 220 nM 3g, pH 7.2, 25 °C. The class given is biochemical. The procedure: The effect of 3g on the reaction of thrombin (or factor Xa) with antithrombin was studied under pseudo-first order conditions such that [AT]0 ≫ [T]0. A fixed concentration of 6 nM plasma α-thrombin in 20 mM Tris-HCl buffer, pH 7.2, containing 100 mM NaCl, 2.5 mM CaCl2 and 0.1% PEG 8000 at 25 °C was incubated for 128 min with final concentrations of 0, 75, 225, or 675 nM of 3g following which a fixed concentration of 100 nM of antithrombin was added and the reaction allowed to proceed. […] The initial rate of hydrolysis of the Spectrozymes were monitored from the linear increase in A405. The fractional residual enzyme activity at each time point was calculated from the slope, i.e., thrombin activity, measured at the start of the experiment and fitted by the standard exponential decay equation 6 to calculate the observed pseudo-first order rate constant, kOBS, at each concentration of 3g. The intrinsic second-order rate constant of antithrombin inhibition of thrombin (kINT) was calculated using equation 7 and plotted against the concentration of thrombin–3g complex, obtained from quadratic equation 8, to derive the kINT of antithrombin inhibition of thrombin–3g complex.

Another assay addresses T2, thrombin mutant K169A (Homo sapiens, UniProt P00734, K537A).
T2 construct: a group of thrombin mutants containing replacement of either Arg or Lys present in exosite 2 to Ala
Put plainly: Inhibition of thrombin mutant K169A. The following applies: pH 7.4, 25 °C. It is filed as biochemical. The protocol: (§1) Chromogenic substrate hydrolysis assay was used to measure potency of inhibition, as previously reported. The assay was performed using Flexstation III (Molecular Devices, Sunnyvale, CA) by monitoring substrate hydrolysis at 405 nm. For thrombin and its mutants, 180 μL of buffer (20 mM Tris-HCl, 100 mM NaCl, 2.5 mM CaCl2, 0.1% (polyethylene glycol) PEG 8000, pH 7.4) was added to each well followed by 5 μL of 240 nM thrombin and 10 μL of sulfated coumarin in DMSO to give 0.002 to 250 μM final concentration (or 10 μL of DMSO alone). After incubation for 10 min at 25 °C, 5 μL of 2 mM Spectrozyme TH was added to each well simultaneously and allowed to react for 60 seconds at 25 °C while simultaneously monitoring the reaction to obtain the rate of increase in A405. Identical experimental conditions were used for reactions in the presence of antithrombin, except for 100 nM of antithrombin added prior to the addition of the substrate.

The target in assay [1] is T3, wtTH (recombinant wild type thrombin) (Homo sapiens, UniProt P00734).
T3 construct: the recombinant wild-type thrombin control
Put plainly: Inhibition of recombinant wild type thrombin. The class given is biochemical. As to conditions: pH 7.4, 25 °C. The procedure:
as §1

In another assay the target is T4, thrombin mutant K235A (Homo sapiens, UniProt P00734, K610A).
T4 construct: a group of thrombin mutants containing replacement of either Arg or Lys present in exosite 2 to Ala
Put plainly: Inhibition of thrombin mutant K235A. The class given is biochemical. As to conditions: pH 7.4, 25 °C. The procedure: as §1

Assay [2] deals with T5, fluorescein-labeled (f FPRCK-) thrombin (Homo sapiens, UniProt P00734).
T5 construct: fluorescein-labeled (f FPRCK-) human thrombin; purchased Haematologic Technologies (Essex Junction, VT); host or cells: human plasma
Kind of assay: Iodide fluorescence quenching of f FPRCK-thrombin (Stern-Volmer). The protocol: The quenching studies performed were done using quartz cuvettes, as described previously. 180 μL of buffer (20 mM Tris-HCl, 100 mM NaCl, 2.5 mM CaCl2, 0.1% PEG 8000, pH 7.4) and 20 μL of 2 μM fluorescein-labeled (f FPRCK-) human thrombin were added to the cuvette; fluorescent intensity readings were taken at the λEX of 490 nm and λEM of […] at 25 °C. A solution of 10 M NaI was made using buffer as the solvent. For the readings where inhibitor was absent, 1 μL increments of 10 M NaI was added directly to the cuvette after initial readings of the buffer-thrombin solution. NaI was added six times, while recording changes in fluorescent intensity each time, giving a concentration range of […] in the cuvette. For the readings where inhibitor was present, after the initial buffer-thrombin read, 1 μL of 80 μM inhibitor solution was added to the cuvette and mixed. An intensity reading was taken and then the addition of 1 μL increments of 10 M NaI was again performed six times, taking reads between each addition. The experiments were performed in triplicate and averaged. Initial fluorescence (F0) was the intensity reading from either the buffer-thrombin solution in the absence of 3g or following addition of 1 μL of 3g. […]

The target in another assay is thrombin (Homo sapiens, UniProt P00734). Put plainly: Michaelis-Menten kinetics of Spectrozyme TH hydrolysis by thrombin. It is filed as biochemical. Set-up: 6 nM plasma α-thrombin; purchased Haematologic Technologies (Essex Junction, VT). As to conditions: for VMAX: pH 7.4, 25 °C. The procedure:
Four concentrations (0, 25, 187, and 2500 nM) of 3g were studied in triplicate where 3g was incubated with thrombin for 10 min in buffer (20 mM Tris-HCl, 100 mM NaCl, 2.5 mM CaCl2, 0.1% PEG 8000, pH 7.4) at 25 °C. Spectrozyme TH at various concentrations (0–250 μM) was added at each of the four 3g concentrations and the initial rate of hydrolysis was recorded from the increase in A405 as a function of time. This slope was fitted to the standard Michaelis-Menten equation to derive VMAX and KM of the reaction at each of the 3g concentrations.

Another assay addresses T6, thrombin mutant R165A (Homo sapiens, UniProt P00734, R533A).
T6 construct: a group of thrombin mutants containing replacement of either Arg or Lys present in exosite 2 to Ala
Put plainly: Inhibition of thrombin mutant R165A. The class given is biochemical. As to conditions: pH 7.4, 25 °C. The procedure:
as §1

A further assay has as its target T7, thrombin mutant R97A (Homo sapiens, UniProt P00734, R456A).
T7 construct: a group of thrombin mutants containing replacement of either Arg or Lys present in exosite 2 to Ala
Put plainly: Inhibition of thrombin mutant R97A. As to conditions: pH 7.4, 25 °C. The class given is biochemical. The procedure:
as §1

T1 sequence (P00742 235-488 limits assumed): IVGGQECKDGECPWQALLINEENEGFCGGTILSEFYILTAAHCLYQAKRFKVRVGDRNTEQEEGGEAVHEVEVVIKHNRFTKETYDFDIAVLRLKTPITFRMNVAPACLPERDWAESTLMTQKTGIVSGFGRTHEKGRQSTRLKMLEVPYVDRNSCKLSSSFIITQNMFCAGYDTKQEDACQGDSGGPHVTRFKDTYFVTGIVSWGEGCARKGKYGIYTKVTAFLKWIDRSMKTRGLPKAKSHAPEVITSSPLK
T1 sequence (P00742 41-179 limits assumed): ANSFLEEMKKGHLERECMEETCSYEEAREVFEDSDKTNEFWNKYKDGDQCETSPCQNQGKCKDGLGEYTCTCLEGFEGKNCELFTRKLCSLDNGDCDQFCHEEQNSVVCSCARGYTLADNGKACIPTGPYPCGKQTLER

Take `O=c1oc2cc(OCCCCn3cc(COc4ccc(-c5c(-c6ccccc6)c6cc(Cl)cc(Cl)c6oc5=O)cc4)nn3)ccc2c(-c2ccccc2)c1-c1ccc(OS(=O)(=O)O)cc1` [3g]: the “change in the second-order rate constant of antithrombin inhibition of factor Xa” value on factor Xa was “did not induce any change”. Also, the HS stood at 7.6 on thrombin mutant K169A; 4.0 in assay [1]; 1.9 at thrombin mutant K235A; 4.2 at thrombin mutant R165A; 2.4 on thrombin mutant R97A. The IC50 against thrombin mutant K169A was found to be 494 ± 50 nM; in assay [1], 413 ± 50 nM; against thrombin mutant K235A, 471 ± 80 nM; against thrombin mutant R165A, 301 ± 20 nM; against thrombin mutant R97A, 380 ± 70 nM. Further, the ΔY amounted to 38 ± 3% at thrombin mutant K169A; 39 ± 3% in assay [1]; 33 ± 3% at thrombin mutant K235A; 28 ± 2% on thrombin mutant R165A; 41 ± 4% at thrombin mutant R97A. For the same compound, the “slope of iodide quenching (Stern-Volmer, KSV)” value in assay [2] (90% saturation of thrombin, pH 7.4, 25 °C, thrombin alone 2.37 ± 0.14) is 1.19 ± 0.06 M⁻¹. Further, the “reduction of iodide quenching of f FPRCK-thrombin” value in assay [2] (90% saturation, versus thrombin alone) is ~ 50%. The VMAX on thrombin ([3g] 25 nM) was 52.4 ± 1.5 mAU/min; at thrombin ([3g] 187 nM), 45.3 ± 1.1 mAU/min; at thrombin ([3g] 2500 nM), 31.0 ± 0.9 mAU/min and 31.0 mAU/min. The “reduction of VMAX” value at thrombin (at saturating levels of 3g) was not above 50%.

For orientation: IC50 means the point on the concentration scale where inhibition reaches its midpoint.

For the origin of these results see PMC4823711, “Allosteric Partial Inhibition of Monomeric Proteases. Sulfated Coumarins Induce Regulation, not just Inhibition, of Thrombin” (Scientific Reports, 2016).
